Assay results as given in US20030113330A1, “Methods for treating pulmonary fibrosis” (priority 1999, published 2003).
Where a SMILES comes first, the peptide text is derived from it. The star is where a group is joined. Cbz = O=C(OCc1ccccc1)*; CH2F = FC*

What was measured:
A549 cells [1] = test: Angiotensin II-induced apoptosis in A549 cells (nuclear fragmentation, PI); format: cell-based, human; conditions: saralasin 50 ug/ml
Method: Cell Culture. […] J. Physiol. Suppl. (Oct.) 261:110-117 (1991) and Uhal et al., Am. J. Physiol. 269:[…]-[…] (1995). […] J. Physiol. 272:[…]-[…] (1997). […] J. Physiol. Suppl. (October) 261:110-117 (1991). […] Detection of Apoptosis. […] J. Physiol. […] Assay of Annexin V binding by flow cytometry was performed essentially as described for human lung fibroblasts in Uhal, et al., Am. J. Physiol. 275:[…]-[…] (1998) after trypsinization of cells from culture vessels. Assay of Caspase-3 activity was performed on viable suspension cultures as reported in Uhal, et al., Am. J. Physiol. 275:[…]-1017 (1998). […] For microscopy, cells were cultured on glass cover slips, incubated with test reagents and fixed with 70% ethanol. The fixed cells were immunolabeled overnight at 4° C. with monoclonal antibodies to cytokeratins 7 and 19 (Chemicon International, Temecula, Calif.), and then for one hour at 37° C. with anti-mouse IgG-rhodamine and DNAse-free RNAse (Boehringer Mannheim, Indianapolis, Ind.) The cover slips were then rinsed in distilled water three times and mounted under Fluoromount Solution (Southern Biotechnology Associates, Birmingham, Ala.) containing 5 ug/ml propidium iodide. Photomicroscopy was performed as described in Uhal, et al., Am. J. Physiol. 275:[…]-1017 (1998). […] The absolute values for basal, i.e., 0.0 dose, apoptosis were: A549 serum-free, 2.29±0.33%; […] AEC serum-free: 1.87±0.41%; and AEC+FBS: 1.97±0.37%.

A549 cells [2] = conditions: for inhibition of amiodarone-induced apoptosis: captopril 500 ng/ml, saralasin 50 ug/ml, Losartan 5 pg/ml
Method: (§1) The human lung adenocarcinoma cell line A549 (ATCC) was cultured in Ham's F12 medium supplemented with 10% fetal bovine serum (FBS). Primary alveolar epithelial cells were isolated from adult male Wistar rats. The primary cells were studied at day two of culture, a time at which they are type II cell-like by accepted morphologic and biochemical criteria. […] All cells were seeded in 24-well or 6-well chambers, and all experiments were conducted at subconfluent densities of 80-90% in serum-free Ham's F12 medium. Test reagents were diluted with Ham's F12 medium and were applied for 20 hours at 37C. in a 5% CO2 incubator.
(§2) Apoptotic cells were detected using propidium iodide (PI) following digestion of ethanol-fixed cells with DNAse-free RNAse in PBS containing 5 ug/ml PI. […] In replicate culture vessels, necrosis was detected as the loss of exclusion of PI after application of the vital dye directly to the cell culture medium at 5 ug/ml final concentration. Red fluorescent (PI-POSITIVE) cells (>570 nm) were scored over the subsequent hour as a percentage of the total cells in any given field. A minimum of 4 separate fields were scored in each of three separate culture vessels per experiment condition; all experiments were performed at least twice and the data were compiled. Although all necrotic cells are PI-positive, some apoptotic cells may also take up the dye but these comprise a minor fraction of the total dead cell population.
(§3) In all assays, detached cells were retained by centrifugation of the culture vessel at 300×g for 10 minutes with a centrifuge rotor designed for culture plates. For detection of necrosis (dye exclusion of PI), the PI was added directly to the cell culture medium immediately before centrifugation of the culture vessel. For detection of apoptosis, ethanol was added directly to the cell culture medium to a final concentration of 70% immediately before the centrifugation. Afterward, the ethanol was carefully removed and the total cell population (attached plus sedimented detached cells) were stained with PI as described above.

primary rat AEC = conditions: for inhibition of amiodarone-induced apoptosis: captopril 500 ng/ml, saralasin 50 ug/ml, Losartan 5 pg/ml, amiodarone 2.5 ug/ml for chelerythrine, orthovanadate
Method: as §1, §2, §3

SMILES: COc1ccc2c(c1OCc1ccccc1)C[C@@H](C(=O)O)N(C(=O)C(c1ccccc1)c1ccccc1)C2 [PD126055]
- inhibition of ANGII-induced apoptosis of A549 cells (A549 cells [1]): unable to significantly inhibit

SMILES: CCc1nc2c(C)cc(C)nc2n1Cc1ccc(-c2ccccc2-c2nn[nH]n2)cc1 [L158809]
- inhibition of ANGII-induced apoptosis of A549 cells (A549 cells [1]): could block

SMILES: C[C@H](CS)C(=O)N1CCC[C@H]1C(=O)O [captopril]
- inhibition of amiodarone-induced apoptosis (A549 cells [2]): inhibited
- inhibition of amiodarone-induced apoptosis (primary rat AEC): inhibited

SMILES: COC(=O)C[C@H](NC(=O)[C@H](C)NC(=O)[C@@H](NC(=O)OCc1ccccc1)C(C)C)C(=O)CF [ZVAD-fmk, N-benzylcarboxy-Val-Ala-Asp-[O-Me]-CH2F] (Cbz-Val-Ala-Asp(OMe)-CH2F)
- inhibition of apoptosis in response to amiodarone (A549 cells [2]; A549): 81%
- inhibition of apoptosis in response to amiodarone (primary rat AEC; primary rat AEC): 97%

SMILES: CNCC(=O)N[C@@H](CCCN=C(N)N)C(=O)N[C@H](C(=O)N[C@@H](Cc1ccc(O)cc1)C(=O)N[C@H](C(=O)N[C@@H](Cc1cnc[nH]1)C(=O)N1CCC[C@H]1C(=O)N[C@@H](C)C(=O)O)C(C)C)C(C)C [saralasin]
- inhibition of ANGII-induced apoptosis of A549 cells (A549 cells [1]): completely inhibited
- inhibition of amiodarone-induced apoptosis (A549 cells [2]): inhibited
- inhibition of amiodarone-induced apoptosis (primary rat AEC): inhibited
